In patent US9993494B2, “Compositions and methods for treating fibrotic disease” (eFFECTOR Therapeutics, Inc., priority 2014, dated 2018):

Test system: normal human lung fibroblasts
Experiment: Ribosomal profiling: translational efficiency in TGFβ-treated fibroblasts
Format: cell-based
Protocol: Ribosomal profiling allows for measurement of changes in transcription and translation on a genome-wide basis accompanying TGFβ-dependent transformation of fibroblasts to myofibroblasts. Ribosomal profiles of the TGFβ-treated fibroblasts from Example 1 (about 6×10^6 cells/10 cm plate) were prepared and analyzed for changes in translational efficiencies with respect to potential disease-associated cellular changes accompanying this TGFβ-induced transformation.
Briefly, cells were washed with cold PBS supplemented with cycloheximide and lysed with 1× mammalian cell lysis buffer for 10 minutes on ice. Lysates were clarified by centrifugation for 10 minutes at 14,000 rpm and supernatants were collected. Cell lysates were processed to generate ribosomal protected fragments and total mRNA according to the instructions included with the ARTseq Ribosome Profiling Kit (Illumina, San Diego, Calif.). Sequencing of total RNA (RNA) and of ribosome-protected fragments of RNA (RPF) was carried out using RNA-Seq methodology according to the manufacturer's instructions (Illumina). To analyze the ribosomal profiles, RNA-Seq reads were processed with tools from the FASTX-Toolkit (fastq_quality_trimmer, fastx_clipper and fastx_trimmer). Unprocessed and processed reads were evaluated for a variety of quality measures using FastQC, and processed reads were mapped to the human genome using TopHat (see, e.g., Trapnell et al., Bioinformatics 25:1105, 2009). Gene-by-gene assessment of the number of fragments strictly and uniquely mapping to the coding region of each gene was conducted using HTSeq-count, a component of the HTSeq package. […] Genes with low counts in either RPF or RNA were excluded from differential analyses. Pathway and network analyses of differential data were conducted using Ingenuity Pathway Analysis (IPA).

## TGFβ
ENSG00000008988, 5 replicates
  Log2 TE RPS20: 1.435
ENSG00000013563, Control vs. TGFβ
  change in translational profile of DNASE1L1 caused by TGFβ: D (D = <1.0 to 1.5)
ENSG00000026025, 5 replicates
  Log2 TE VIM: 1.002
ENSG00000047648, 5 replicates
  Log2 TE ARHGAP6: −1.082
ENSG00000049130, 5 replicates
  Log2 TE KITLG: −2.027
ENSG00000049130, Control vs. TGFβ
  change in translational profile of KITLG caused by TGFβ: A (A = <−2.5)
ENSG00000049192, 5 replicates
  Log2 TE ADAMTS6: 2.863
ENSG00000049192, Control vs. TGFβ
  change in translational profile of ADAMTS6 caused by TGFβ: F (F = >2.5)
ENSG00000050426, 5 replicates
  Log2 TE LETMD1: 1.27
ENSG00000050426, Control vs. TGFβ
  change in translational profile of LETMD1 caused by TGFβ: D (D = <1.0 to 1.5)
ENSG00000052126, Control vs. TGFβ
  change in translational profile of PLEKHA5 caused by TGFβ: C (C = <−1.0 to −1.5)
ENSG00000053747, 5 replicates
  Log2 TE LAMA3: −1.233
ENSG00000054654, 5 replicates
  Log2 TE SYNE2: −1.793
ENSG00000063046, Control vs. TGFβ
  change in translational profile of EIF4B caused by TGFβ: E (E = <1.5 to 2.5)
ENSG00000063177, 5 replicates
  Log2 TE RPL18: 1.612
ENSG00000063177, Control vs. TGFβ
  change in translational profile of RPL18 caused by TGFβ: E (E = <1.5 to 2.5)
ENSG00000064042, 5 replicates
  Log2 TE LIMCH1: −1.222
ENSG00000064393, Control vs. TGFβ
  change in translational profile of HIPK2 caused by TGFβ: C (C = <−1.0 to −1.5)
ENSG00000066279, 5 replicates
  Log2 TE ASPM: −2.175
ENSG00000066279, Control vs. TGFβ
  change in translational profile of ASPM caused by TGFβ: A (A = <−2.5)
ENSG00000068028, Control vs. TGFβ
  change in translational profile of RASSF1 caused by TGFβ: D (D = <1.0 to 1.5)
ENSG00000070756, 5 replicates
  Log2 TE PABPC1: 1.207
ENSG00000070756, Control vs. TGFβ
  change in translational profile of PABPC1 caused by TGFβ: D (D = <1.0 to 1.5)
ENSG00000071082, 5 replicates
  Log2 TE RPL31: 1.6
ENSG00000071082, Control vs. TGFβ
  change in translational profile of RPL31 caused by TGFβ: E (E = <1.5 to 2.5)
ENSG00000075651, 5 replicates
  Log2 TE PLD1: −1.032
ENSG00000075651, Control vs. TGFβ
  change in translational profile of PLD1 caused by TGFβ: B (B = <−1.5 to −2.5)
ENSG00000077312, 5 replicates
  Log2 TE SNRPA: 1.462
ENSG00000078401, Control vs. TGFβ
  change in translational profile of EDN1 caused by TGFβ: E (E = <1.5 to 2.5)
ENSG00000081377, 5 replicates
  Log2 TE CDC14B: −1.331
ENSG00000083845, 5 replicates
  Log2 TE RPS5: 1.533
ENSG00000087586, 5 replicates
  Log2 TE AURKA: −1.736
ENSG00000087586, Control vs. TGFβ
  change in translational profile of AURKA caused by TGFβ: B (B = <−1.5 to −2.5)
ENSG00000088367, 5 replicates
  Log2 TE EPB41L1: 1.018
ENSG00000088367, Control vs. TGFβ
  change in translational profile of EPB41L1 caused by TGFβ: D (D = <1.0 to 1.5)
ENSG00000088756, 5 replicates
  Log2 TE ARHGAP28: −1.024
ENSG00000089009, 5 replicates
  Log2 TE RPL6: 1.107
ENSG00000089009, Control vs. TGFβ
  change in translational profile of RPL6 caused by TGFβ: D (D = <1.0 to 1.5)
ENSG00000089041, Control vs. TGFβ
  change in translational profile of P2RX7 caused by TGFβ: B (B = <−1.5 to −2.5)
ENSG00000089094, Control vs. TGFβ
  change in translational profile of KDM2B caused by TGFβ: C (C = <−1.0 to −1.5)
ENSG00000089157, Control vs. TGFβ
  change in translational profile of RPLP0 caused by TGFβ: D (D = <1.0 to 1.5)
ENSG00000089289, 5 replicates
  Log2 TE IGBP1: 1.266
ENSG00000089289, Control vs. TGFβ
  change in translational profile of IGBP1 caused by TGFβ: E (E = <1.5 to 2.5)
ENSG00000089351, 5 replicates
  Log2 TE GRAMD1A: 1.069
ENSG00000090376, 5 replicates
  Log2 TE IRAK3: −1.017
ENSG00000090376, Control vs. TGFβ
  change in translational profile of IRAK3 caused by TGFβ: C (C = <−1.0 to −1.5)
ENSG00000090621, Control vs. TGFβ
  change in translational profile of PABPC4 caused by TGFβ: D (D = <1.0 to 1.5)
ENSG00000094963, 5 replicates
  Log2 TE FMO2: −2.146
ENSG00000094963, Control vs. TGFβ
  change in translational profile of FMO2 caused by TGFβ: A (A = <−2.5)
ENSG00000097021, 5 replicates
  Log2 TE ACOT7: 1.011
ENSG00000097021, Control vs. TGFβ
  change in translational profile of ACOT7 caused by TGFβ: D (D = <1.0 to 1.5)
ENSG00000099624, Control vs. TGFβ
  change in translational profile of ATP5D caused by TGFβ: D (D = <1.0 to 1.5)
ENSG00000100097, Control vs. TGFβ
  change in translational profile of LGALS1 caused by TGFβ: D (D = <1.0 to 1.5)
ENSG00000100129, 5 replicates
  Log2 TE EIF3L: 1.429
ENSG00000100129, Control vs. TGFβ
  change in translational profile of EIF3L caused by TGFβ: D (D = <1.0 to 1.5)
ENSG00000100316, 5 replicates
  Log2 TE RPL3: 1.78
ENSG00000100316, Control vs. TGFβ
  change in translational profile of RPL3 caused by TGFβ: E (E = <1.5 to 2.5)
ENSG00000100575, 5 replicates
  Log2 TE TIMM9: 1.113
